According to paper PMC10023787, “Trio-pharmacophore DNA-encoded chemical library for simultaneous selection of fragments and linkers” (Nature Communications, 2023):
Read-outs that look alike come from different tables or passages of the source.

How the values were obtained:
[1] = target: T1, MMP-2 (Homo sapiens, UniProt P08253); assay: MMP-2 inhibition assay (fluorogenic peptide substrate); assay type: biochemical
T1 construct: purchased Sino Biological 10082-HNAH
T1 sequence (P08253 110-660): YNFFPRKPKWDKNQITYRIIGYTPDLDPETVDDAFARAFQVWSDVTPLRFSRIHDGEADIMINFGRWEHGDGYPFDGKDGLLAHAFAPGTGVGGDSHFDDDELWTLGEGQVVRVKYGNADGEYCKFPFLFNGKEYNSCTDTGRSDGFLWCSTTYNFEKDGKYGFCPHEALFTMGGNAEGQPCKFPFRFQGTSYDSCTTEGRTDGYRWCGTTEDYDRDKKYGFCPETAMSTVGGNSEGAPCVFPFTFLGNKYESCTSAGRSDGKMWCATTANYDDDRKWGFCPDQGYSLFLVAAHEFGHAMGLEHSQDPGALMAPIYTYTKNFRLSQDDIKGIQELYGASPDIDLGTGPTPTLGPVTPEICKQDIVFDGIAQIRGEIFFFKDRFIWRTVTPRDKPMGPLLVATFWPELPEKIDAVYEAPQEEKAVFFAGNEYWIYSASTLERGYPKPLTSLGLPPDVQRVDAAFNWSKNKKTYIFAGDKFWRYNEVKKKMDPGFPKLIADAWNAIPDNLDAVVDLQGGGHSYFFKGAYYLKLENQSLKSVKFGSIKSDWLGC
How it was run: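 Hydrolysis of DNP-Pro-Leu-Gly-Met-Trp-Ser-Arg (25 μM final) was tracked kinetically at em 360 nm over 30 min. Enzymes, APMA-activated and at 10 nM (MMP-9) or 6.5 nM (MMP-2) final, sat 30 min at RT with inhibitor in pH 7.5 Tris buffer with CaCl2 and Brij 35 first. Logistic fitting of Vmax against concentration gave IC50, in triplicate.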

[2] = target: T1, MMP-2; assay: Dynamic dual-pharmacophore DEL selection against MMP-2, NGS decoding; assay type: binding; details: MMP2 3L (3' sub-library members)
Source text: Matrix metalloproteinases (MMPs) are zinc-dependent endopeptidases capable of degrading and remodeling extracellular matrix components[46],[47]. They are attractive therapeutic targets as high expression levels were detected in various diseases, such as inflammatory diseases, and at different stages of cancers, including metastasis, invasion, and angiogenesis[47]–[53]. As shown in Supplementary Fig. 3c, we performed selections against the two gelatinases (human MMP-2 and human MMP-9) to identify binding fragments for later design and synthesis of small molecule inhibitors. After selection, the three sub-libraries were decoded, and the enrichment was calculated by dividing the post-selection fraction (count/total counts) by the pre-selection fraction (Fig. 4a and Supplementary Fig. 13).
4 µg of MMP-2/MMP-9 was dissolved in 100 µl of selection buffer containing 25 mM Tris-base, 10 mM CaCl2, 150 mM NaCl, 0.05% Tween 20, pH 7.5. 10 µl of 4-Aminophenylmercuric acetate (APMA) (100 mM) solution was added to the protein solution and incubated at 37 °C for 1 h. After activation, the solution was added on top of 40 µl pre-washed Ni-NTA resin and incubated for 30 min on a rotary shaker. The supernatant was discarded, and the resin was washed three times with the selection buffer.
For each independent selection, three sub-libraries were mixed in the selection buffer with a final concentration of 40 nM of each sub-library in 100 µl. The mixture was heat denatured at 90 °C for 1 min and slowly cooled down to allow the formation of the trio-pharmacophore library. The dynamic dual-pharmacophore DEL was provided by DyNAbind GmbH (Merck, DYNA001).
The assembled library was incubated with the protein-bound solid support for 2 h at RT on a rotary shaker. In parallel, selection on bare solid support served as the negative control to exclude promiscuous binders on the resin. After panning, the supernatant was discarded, and the resin was washed three times with 1 ml selection buffer. Finally, 100 µl of 50 mM Tris buffer, pH 7.4 was added to resuspend the resin and the resin was incubated at 95 °C for 5 min to denature the protein, release, and collect the bound library members.
The eluted library members were subjected to sample preparation for NGS. NGS preparation was achieved by two-step PCR. First, the individual selection was indexed using primers containing unique sequences corresponding to each selection. The amplified product was purified from 2% agarose gel. Second, the purified DNA from all selections were pooled in equal amount and subjected to the 2nd PCR step to attach sequences compatible with the NGS flow cell and the sequencing primers. NGS was performed by Novogene UK with Novaseq 6000. Raw data files (fastq files) obtained were decoded using a custom python script and excel. The sequence reads corresponding to each sample was retrieved by searching for the correct index unique to each selection. Then, the code region was extracted from each sequence and assigned to the corresponding identity. The count of each code in each selection sample was obtained by looping through the total reads and counting the occurrence of each code. The enrichment fold of each compound was calculated by first, dividing the count by the total count to get the abundance, second, the abundance after the selection was divided by the abundance of pre-selection to reflect the distribution change of the compound. Next, the enrichment fold was plotted against the count for each member of the library to give the scatter plots as in Fig. 4.

[3] = read-out: Mean (MMP-2, Supplementary fig 16)
[4] = read-out: Mean (MMP-2 dose-response, Supplementary fig 15)
[5] = read-out: Mean (dose-response, Supplementary fig 17)
[6] = read-out: Normalized activity (Mean)

Compound: O=C(O)c1cncc(O)c1 [Compound 828]
- inhibitory effect ([1]; in words): high µM range
- IC50 ([1]; mean ± SE, n.d: not detected, Fig. 5d unit inferred, µM, read-out: IC50): 385 ± 67.3 µM
- remaining activity at 0.0156 µM [1, 3]: 104%
- remaining activity at 0.08 µM [1, 3]: 94%
- remaining activity at 0.39 µM [1, 3]: 105%
- remaining activity at 1.95 µM [1, 3]: 107%
- remaining activity at 9.76 µM [1, 3]: 90.1%
- remaining activity at 48.78 µM [1, 3]: 83.6%
- remaining activity at 243.9 µM [1, 3]: 67.9%
- remaining activity at 1219.51 µM [1, 3]: 0%
- remaining activity at 0.0156 µM [1, 4]: 104%
- remaining activity at 0.08 µM [1, 4]: 94%
- remaining activity at 0.39 µM [1, 4]: 105%
- remaining activity at 1.95 µM [1, 4]: 107%
- remaining activity at 9.76 µM [1, 4]: 90.1%
- remaining activity at 48.78 µM [1, 4]: 83.6%
- remaining activity at 243.9 µM [1, 4]: 67.9%
- remaining activity at 1219.51 µM [1, 4]: 0%
- remaining activity at 0.0156 µM [1, 5]: 104%
- remaining activity at 0.08 µM [1, 5]: 94%
- remaining activity at 0.39 µM [1, 5]: 105%
- remaining activity at 1.95 µM [1, 5]: 107%
- remaining activity at 9.76 µM [1, 5]: 90.1%
- remaining activity at 48.78 µM [1, 5]: 83.6%
- remaining activity at 243.9 µM [1, 5]: 67.9%
- remaining activity at 1219.51 µM [1, 5]: 0%
- remaining activity at 0.0156098 µM [1, 6]: 104%
- remaining activity at 0.0780488 µM [1, 6]: 94%
- remaining activity at 0.390244 µM [1, 6]: 105%
- remaining activity at 1.95122 µM [1, 6]: 107%
- remaining activity at 9.7561 µM [1, 6]: 90.1%
- remaining activity at 48.7805 µM [1, 6]: 83.6%
- remaining activity at 243.902 µM [1, 6]: 67.9%
- remaining activity at 1219.51 µM [1, 6]: 0%
- Enrichment Fold [2]: 6.248
- Count ([2]; NGS sequence count after selection): 14566
